The source of these data is ChEMBL document CHEMBL5143744, “Discovery of Tenapanor: A First-in-Class Minimally Systemic Inhibitor of Intestinal Na+/H+ Exchanger Isoform 3” (ACS Med Chem Lett, 2022).

Calls of active or inactive are those of the source. No cut-off for these calls is given here.

Data set [1] has as its target T1, Sodium/hydrogen exchanger 3 (Homo sapiens, UniProt P48764).
T1 sequence (P48764 whole entry): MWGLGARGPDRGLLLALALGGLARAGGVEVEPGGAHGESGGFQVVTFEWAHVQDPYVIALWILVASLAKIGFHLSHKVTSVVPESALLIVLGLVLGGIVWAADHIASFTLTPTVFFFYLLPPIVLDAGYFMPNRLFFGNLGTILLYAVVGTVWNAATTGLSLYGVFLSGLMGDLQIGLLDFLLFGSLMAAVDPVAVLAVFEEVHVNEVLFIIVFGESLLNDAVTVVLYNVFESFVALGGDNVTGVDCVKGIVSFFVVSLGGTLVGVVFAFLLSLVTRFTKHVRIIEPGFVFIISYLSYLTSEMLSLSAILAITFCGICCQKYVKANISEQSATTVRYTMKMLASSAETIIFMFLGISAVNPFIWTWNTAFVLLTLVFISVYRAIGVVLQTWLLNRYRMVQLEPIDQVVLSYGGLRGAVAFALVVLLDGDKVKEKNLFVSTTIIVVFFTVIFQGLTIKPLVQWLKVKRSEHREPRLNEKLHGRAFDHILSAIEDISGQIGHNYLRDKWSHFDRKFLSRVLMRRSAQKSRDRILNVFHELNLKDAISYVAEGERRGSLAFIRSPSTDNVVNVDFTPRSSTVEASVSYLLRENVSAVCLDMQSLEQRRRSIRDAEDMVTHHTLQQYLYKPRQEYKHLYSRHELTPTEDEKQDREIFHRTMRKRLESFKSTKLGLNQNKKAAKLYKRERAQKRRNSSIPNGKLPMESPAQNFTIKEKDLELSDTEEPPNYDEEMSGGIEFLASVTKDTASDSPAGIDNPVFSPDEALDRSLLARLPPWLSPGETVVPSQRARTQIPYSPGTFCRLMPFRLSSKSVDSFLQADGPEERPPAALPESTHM
The data set can be described thus: Inhibition of human NHE3 expressed in opossum kidney cells assessed as reduction in Na-HEPES buffer-mediated pH recovery in presence of NEH1 inhibitor ethyl isopropyl amiloride by BCECF-AM dye based fluorescence assay. In kind it is cell-based, Kidney epithelial cell.

A short description of data set [2]: In vivo inhibition of NEH3 in Sprague-Dawley rat assessed as fecal form score at 3 mg/kg, po administered via gavage measured after 6 hrs. In kind it is functional.
Data set [3] in a line: AUC in Sprague-Dawley rat at 11 mg/kg, po administered via gavage by LC-MS/MS analysis. Conditions: in vivo.
A short description of data set [4]: In vivo inhibition of NEH3 in Sprague-Dawley rat assessed as fecal water content at 3 mg/kg, po administered via gavage measured after 6 hrs. In kind it is functional. Set-up: scale not given: the % may be the effect or the level left.
Data set [5] is described as follows: In vivo inhibition of NEH3 in Sprague-Dawley rat assessed as sodium excretion in urine at 3 mg/kg, po administered via gavage measured after 16 hrs by ion chromatography relative to control. More on the design: scale not given: the % may be the effect or the level left.
The nature of data set [6]: Cmax in Sprague-Dawley rat at 11 mg/kg, po administered via gavage by LC-MS/MS analysis. Conditions: in vivo. In kind it is ADME, organism-based. Set-up: dose 11 mg/kg, route po.
Another data set deals with Rattus norvegicus. Put plainly: In vivo inhibition of NEH3 in Sprague-Dawley rat assessed as reduction in sodium excretion in urine at 0.1 to 3 mg/kg, po administered via gavage measured after 16 hrs by ion chromatography. In kind it is functional, organism-based. Conditions: dose 0.1-3 mg/kg.
Data set [7] is described as follows: Cmax in Sprague-Dawley rat at 30 mg/kg, po administered via gavage by LC-MS/MS analysis. In kind it is ADME, organism-based. Set-up: dose 30 mg/kg, route po. Conditions: in vivo.
The target of another data set is hERG (KCNH2) (Homo sapiens, UniProt Q12809). The data set can be described thus: Inhibition of human ERG at 10 uM relative to control. In kind it is toxicity.
Data set [8] can be described thus: Drug metabolism in Sprague-Dawley rat feces at 0.1 mg/kg, po administered via gavage measured after 72 hrs by LC-MS/MS analysis. In kind it is ADME, organism-based. Conditions: in vivo.
Data set [9] is described as follows: Drug recovery in Sprague-Dawley rat feces at 0.1 mg/kg, po administered via gavage measured after 72 hrs by LC-MS/MS analysis. In kind it is ADME, organism-based. The note with it: faeces, read-out: Drug recovery.
The nature of data set [10]: Drug metabolism in Sprague-Dawley rat at 30 mg/kg, po administered via gavage by LC-MS/MS analysis. In kind it is ADME, organism-based. Conditions: in vivo.
Data set [11] can be described thus: In vivo inhibition of NEH3 in Sprague-Dawley rat assessed as increase in fecal water content at 0.1 to 3 mg/kg, po administered via gavage measured after 6 hrs. In kind it is functional. Conditions: dose 0.1-3 mg/kg. Set-up: scale not given: the % may be the effect or the level left.
The nature of data set [12]: Drug recovery in Sprague-Dawley rat feces at 3 mg/kg, po administered via gavage measured after 64 hrs by LC-MS/MS analysis. The note with it: faeces, read-out: Drug recovery. In kind it is ADME, organism-based.
Data set [13] in a line: Drug metabolism in Sprague-Dawley rat feces at 3 mg/kg, po administered via gavage measured after 64 hrs by LC-MS/MS analysis. Conditions: in vivo. In kind it is ADME, organism-based.
For data set [14], the target named is Sodium/hydrogen exchanger 3 (Rattus norvegicus, UniProt P26433). The data set can be described thus: Inhibition of rat NHE3 expressed in opossum kidney cells assessed as reduction in Na-HEPES buffer-mediated pH recovery in presence of NEH1 inhibitor ethyl isopropyl amiloride by BCECF-AM dye based fluorescence assay. In kind it is cell-based, Kidney epithelial cell.
Sodium/hydrogen exchanger 3 (Rattus norvegicus, UniProt P26433), sequence (P26433 whole entry): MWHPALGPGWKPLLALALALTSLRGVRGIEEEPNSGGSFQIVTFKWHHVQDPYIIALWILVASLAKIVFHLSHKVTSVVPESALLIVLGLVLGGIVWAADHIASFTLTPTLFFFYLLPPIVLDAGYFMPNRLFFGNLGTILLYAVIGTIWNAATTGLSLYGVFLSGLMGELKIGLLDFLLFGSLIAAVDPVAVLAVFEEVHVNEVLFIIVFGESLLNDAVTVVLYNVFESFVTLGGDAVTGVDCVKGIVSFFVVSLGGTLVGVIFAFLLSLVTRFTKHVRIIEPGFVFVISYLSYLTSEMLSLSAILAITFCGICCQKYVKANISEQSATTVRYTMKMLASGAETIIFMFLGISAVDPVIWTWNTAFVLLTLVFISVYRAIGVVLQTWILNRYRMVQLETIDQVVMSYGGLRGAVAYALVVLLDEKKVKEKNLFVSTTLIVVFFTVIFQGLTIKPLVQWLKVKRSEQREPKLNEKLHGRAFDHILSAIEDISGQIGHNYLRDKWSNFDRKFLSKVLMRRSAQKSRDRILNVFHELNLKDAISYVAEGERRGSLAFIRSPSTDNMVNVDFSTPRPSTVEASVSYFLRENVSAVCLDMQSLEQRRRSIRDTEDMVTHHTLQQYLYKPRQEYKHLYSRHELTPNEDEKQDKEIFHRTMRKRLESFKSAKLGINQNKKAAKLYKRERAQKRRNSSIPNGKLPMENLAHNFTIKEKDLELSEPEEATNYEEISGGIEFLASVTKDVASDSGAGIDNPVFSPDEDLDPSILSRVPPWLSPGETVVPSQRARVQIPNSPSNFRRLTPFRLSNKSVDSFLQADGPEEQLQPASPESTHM

hERG (KCNH2), sequence (Q12809 whole entry): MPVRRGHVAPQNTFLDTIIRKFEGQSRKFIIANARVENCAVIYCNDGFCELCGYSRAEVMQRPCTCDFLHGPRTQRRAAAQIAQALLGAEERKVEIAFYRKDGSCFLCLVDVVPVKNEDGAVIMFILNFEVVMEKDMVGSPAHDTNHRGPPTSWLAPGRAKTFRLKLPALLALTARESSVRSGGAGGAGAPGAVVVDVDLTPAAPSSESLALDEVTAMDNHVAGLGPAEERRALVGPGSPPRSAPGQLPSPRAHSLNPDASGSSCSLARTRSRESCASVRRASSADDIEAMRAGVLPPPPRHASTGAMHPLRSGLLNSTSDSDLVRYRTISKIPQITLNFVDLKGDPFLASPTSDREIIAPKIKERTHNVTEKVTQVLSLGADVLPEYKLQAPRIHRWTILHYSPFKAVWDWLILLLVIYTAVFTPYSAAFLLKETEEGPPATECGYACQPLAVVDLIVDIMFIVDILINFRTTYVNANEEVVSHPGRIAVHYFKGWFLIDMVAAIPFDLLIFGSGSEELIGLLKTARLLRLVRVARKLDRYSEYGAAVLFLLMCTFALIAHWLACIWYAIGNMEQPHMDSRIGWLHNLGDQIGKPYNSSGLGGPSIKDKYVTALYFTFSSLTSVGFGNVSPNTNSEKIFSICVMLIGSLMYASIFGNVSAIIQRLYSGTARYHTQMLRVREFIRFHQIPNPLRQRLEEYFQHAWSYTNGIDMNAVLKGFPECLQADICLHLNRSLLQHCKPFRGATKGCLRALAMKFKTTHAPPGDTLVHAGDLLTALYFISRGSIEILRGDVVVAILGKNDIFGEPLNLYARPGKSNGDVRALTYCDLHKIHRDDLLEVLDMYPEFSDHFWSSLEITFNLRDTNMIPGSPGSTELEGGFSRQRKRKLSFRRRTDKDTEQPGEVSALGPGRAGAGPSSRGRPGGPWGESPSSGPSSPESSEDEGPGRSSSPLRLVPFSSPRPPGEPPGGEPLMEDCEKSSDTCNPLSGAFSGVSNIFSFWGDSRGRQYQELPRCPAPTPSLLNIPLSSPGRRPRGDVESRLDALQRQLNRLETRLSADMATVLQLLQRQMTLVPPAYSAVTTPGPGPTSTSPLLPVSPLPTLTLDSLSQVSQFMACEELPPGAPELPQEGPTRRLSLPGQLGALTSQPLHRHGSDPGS

Consider `CN1Cc2c(Cl)cc(Cl)cc2C(c2cccc(S(=O)(=O)NCCOCCOCCNC(=O)NCCOCCOCCNS(=O)(=O)c3cccc(C4CN(C)Cc5c(Cl)cc(Cl)cc54)c3)c2)C1` (centres undefined), for which the IC50 in [1] was 2000 nM. The figures for the Activity in data set [2], in data set [4] and in data set [5] were 1, 50% and 100%, respectively. The same molecule showed an AUC in [3] of less than 19 ng·h/mL. The Cmax in data set [6] was less than 5 ng/mL.
With `CN1Cc2c(Cl)cc(Cl)cc2[C@H](c2cccc(S(=O)(=O)NCCOCCOCCNC(=O)Nc3ccc(NC(=O)NCCOCCOCCNS(=O)(=O)c4cccc([C@@H]5CN(C)Cc6c(Cl)cc(Cl)cc65)c4)cc3)c2)C1`, the IC50 in data set [1] was 1.58 nM. Moreover, the inhibition entry in the data set with Rattus norvegicus was “Active”. The molecule also showed a maximum concentration (Cmax) in data set [7] of less than 2 ng/mL. The molecule also registered an inhibition at 10 µM against hERG (KCNH2) of less than 50%. The Drug metabolism result in data set [8] and in [10] was “Metabolite_Notdetected” throughout. Also, the dose excreted at 72 h in [9] amounted to 93%. Moreover, in data set [11], the Activity was found to be 10%.
Consider `CN1Cc2c(Cl)cc(Cl)cc2[C@H](c2cccc(S(=O)(=O)NCCOCCOCCNC(=O)CCC(=O)NCCOCCOCCNS(=O)(=O)c3cccc([C@@H]4CN(C)Cc5c(Cl)cc(Cl)cc54)c3)c2)C1`, for which, in the data set with Rattus norvegicus, the inhibition result was “Active”. In addition, the Cmax in [7] (Sprague-Dawley, read-out: Cmax) is less than 2 ng/mL. At hERG (KCNH2), this molecule returned an inhibition at 10 µM of less than 50%. In addition, the Drug metabolism result in data set [8] and in data set [10] was “Metabolite_Notdetected” each time. Besides, the dose excreted at 72 h in data set [9] was found to be 46%. The Activity in [11] turned out to be 10%.
Regarding `CN1Cc2c(Cl)cc(Cl)cc2[C@H](c2cccc(S(=O)(=O)NCCOCCOCCOCCNC(=O)NCCOCCOCCOCCNS(=O)(=O)c3cccc([C@@H]4CN(C)Cc5c(Cl)cc(Cl)cc54)c3)c2)C1`, the inhibition result in the data set with Rattus norvegicus was “Active”. In addition, the Cmax in data set [7] (Sprague-Dawley, read-out: Cmax) is less than 5 ng/mL. Also, the dose excreted at 64 h in data set [12] is 82%. This molecule also gave an inhibition at 10 µM against hERG (KCNH2) of less than 50%. For the same molecule, the Drug metabolism result in [10] was “Metabolite_Notdetected”; in data set [13], “Metabolite_Detected”. Besides, in data set [11], the Activity was 10%.
Consider `CN1Cc2c(Cl)cc(Cl)cc2[C@@H](c2cccc(NC(=O)[C@H](O)[C@@H](O)[C@H](O)[C@H](O)CO)c2)C1`, for which the values for the IC50 in data set [1] and in [14] were 2510 nM and 7940 nM, respectively.
As to `CN1Cc2c(Cl)cc(Cl)cc2[C@H](c2cccc(S(=O)(=O)NCCOCCOCCOCCNC(=O)NCCCNC(=O)NCCOCCOCCOCCNS(=O)(=O)c3cccc([C@@H]4CN(C)Cc5c(Cl)cc(Cl)cc54)c3)c2)C1`, the highest concentration (Cmax) in data set [7] (Sprague-Dawley, read-out: Cmax) was less than 15 ng/mL. Besides, in [12], the dose excreted at 64 h came out at 96%. Further, the inhibition at 10 µM at hERG (KCNH2) was less than 50%. In addition, the Drug metabolism entry in data set [10] and in [13] was “Metabolite_Notdetected” throughout.
With `CN1Cc2c(Cl)cc(Cl)cc2C(c2cccc(NC(=O)[C@H](O)[C@@H](O)[C@H](O)[C@H](O)CO)c2)C1` (mixture of isomers), the concentration for half-maximal inhibition (IC50) in [1] was 50.1 nM; in data set [14], 39.8 nM.
`CN1Cc2c(Cl)cc(Cl)cc2C(c2cccc(S(=O)(=O)NCCOCCOCCNC(=O)NCCCCNC(=O)NCCOCCOCCNS(=O)(=O)c3cccc(C4CN(C)Cc5c(Cl)cc(Cl)cc54)c3)c2)C1` (racemic): the Activity in data set [2] worked out at 4.5; in [4], 64%; in [5], 22%. The IC50 in [14] is 3.16 nM.
In the same order, the values of `CN1Cc2c(Cl)cc(Cl)cc2C(c2cccc(S(=O)(=O)NCCOCCOCCNC(=O)Nc3ccc(NC(=O)NCCOCCOCCNS(=O)(=O)c4cccc(C5CN(C)Cc6c(Cl)cc(Cl)cc65)c4)cc3)c2)C1` (racemic) are 3, 60%, 32% and 7.94 nM.
As for `CN1Cc2c(Cl)cc(Cl)cc2C(c2ccc(S(=O)(=O)NCCOCCOCCNC(=O)Nc3ccc(NC(=O)NCCOCCOCCNS(=O)(=O)c4ccc(C5CN(C)Cc6c(Cl)cc(Cl)cc65)cc4)cc3)cc2)C1` (racemic), the Activity in data set [2] is recorded as 3; in [4], 58%; in data set [5], 29%.
In the same order, the values of `CN1Cc2c(Cl)cc(Cl)cc2C(c2ccc(S(=O)(=O)NCCOCCOCCNC(=O)COCC(=O)NCCOCCOCCNS(=O)(=O)c3ccc(C4CN(C)Cc5c(Cl)cc(Cl)cc54)cc3)cc2)C1` (racemic) are 2.5, 59% and 29%.
`CN1Cc2c(Cl)cc(Cl)cc2C(c2cccc(S(=O)(=O)NCCCS(=O)(=O)O)c2)C1` (racemic): the IC50 is 1580 nM in data set [1] and 50.1 nM in [14].
As to `CN1Cc2c(Cl)cc(Cl)cc2C(c2ccc(S(=O)(=O)NCCOCCOCCNC(=O)CCC(=O)NCCOCCOCCNS(=O)(=O)c3ccc(C4CN(C)Cc5c(Cl)cc(Cl)cc54)cc3)cc2)C1` (racemic), the Activity is given as 3.5 in [2], 60% in data set [4] and 23% in data set [5].
In the same order, the values of `CN1Cc2c(Cl)cc(Cl)cc2C(c2cccc(S(=O)(=O)NCCOCCOCCOCCNC(=O)NCCCCNC(=O)NCCOCCOCCOCCNS(=O)(=O)c3cccc(C4CN(C)Cc5c(Cl)cc(Cl)cc54)c3)c2)C1` (racemic) are 3, 57% and 50%.
For `CN(CC(=O)NCCOCCOCCNS(=O)(=O)c1ccc(C2CN(C)Cc3c(Cl)cc(Cl)cc32)cc1)CC(=O)NCCOCCOCCNS(=O)(=O)c1ccc(C2CN(C)Cc3c(Cl)cc(Cl)cc32)cc1` (racemic) the same measures were 3, 57% and 45%.
With `CN1Cc2c(Cl)cc(Cl)cc2C(c2cccc(S(=O)(=O)NCCOCCOCCNS(=O)(=O)c3cccc(C4CN(C)Cc5c(Cl)cc(Cl)cc54)c3)c2)C1` (racemic), the IC50 in data set [1] was 5010 nM.
With `CN1Cc2c(Cl)cc(Cl)cc2C(c2cccc(S(=O)(=O)NCC(=O)O)c2)C1` (racemic), the IC50 in data set [1] and in data set [14] was 100 nM throughout.
Regarding `CN1Cc2c(Cl)cc(Cl)cc2C(c2ccc(S(=O)(=O)NCCOCCOCCNC(=O)NCCCCNC(=O)NCCOCCOCCNS(=O)(=O)c3ccc(C4CN(C)Cc5c(Cl)cc(Cl)cc54)cc3)cc2)C1` (racemic), the Activity was determined as 3 in data set [2], 60% in [4] and 14% in data set [5].
Turning to `CN1Cc2c(Cl)cc(Cl)cc2C(c2cccc(S(=O)(=O)NCCOCCOCCOCCNC(=O)Nc3ccc(NC(=O)NCCOCCOCCOCCNS(=O)(=O)c4cccc(C5CN(C)Cc6c(Cl)cc(Cl)cc65)c4)cc3)c2)C1` (racemic), the Activity in data set [2] came to 2; in data set [4] it was 54%; in data set [5], 42%. For the same molecule, in data set [14], the IC50 is 6310 nM.
`CN1Cc2c(Cl)cc(Cl)cc2C(c2cccc(S(=O)(=O)NCCCP(=O)(O)O)c2)C1` (racemic): the concentration for half-maximal inhibition (IC50) was 5010 nM in [1] and 63.1 nM in [14].

As usually defined, the IC50 is the point on the concentration scale where inhibition reaches its midpoint. The term AUC denotes concentration integrated over time. Usually Cmax stands for the peak of the concentration-time curve. What is called inhibition is the drop in the measured response relative to a control, in per cent.
